SMILES strings stand for the structures.

Sequence of Prolyl endopeptidase (P23687 whole entry): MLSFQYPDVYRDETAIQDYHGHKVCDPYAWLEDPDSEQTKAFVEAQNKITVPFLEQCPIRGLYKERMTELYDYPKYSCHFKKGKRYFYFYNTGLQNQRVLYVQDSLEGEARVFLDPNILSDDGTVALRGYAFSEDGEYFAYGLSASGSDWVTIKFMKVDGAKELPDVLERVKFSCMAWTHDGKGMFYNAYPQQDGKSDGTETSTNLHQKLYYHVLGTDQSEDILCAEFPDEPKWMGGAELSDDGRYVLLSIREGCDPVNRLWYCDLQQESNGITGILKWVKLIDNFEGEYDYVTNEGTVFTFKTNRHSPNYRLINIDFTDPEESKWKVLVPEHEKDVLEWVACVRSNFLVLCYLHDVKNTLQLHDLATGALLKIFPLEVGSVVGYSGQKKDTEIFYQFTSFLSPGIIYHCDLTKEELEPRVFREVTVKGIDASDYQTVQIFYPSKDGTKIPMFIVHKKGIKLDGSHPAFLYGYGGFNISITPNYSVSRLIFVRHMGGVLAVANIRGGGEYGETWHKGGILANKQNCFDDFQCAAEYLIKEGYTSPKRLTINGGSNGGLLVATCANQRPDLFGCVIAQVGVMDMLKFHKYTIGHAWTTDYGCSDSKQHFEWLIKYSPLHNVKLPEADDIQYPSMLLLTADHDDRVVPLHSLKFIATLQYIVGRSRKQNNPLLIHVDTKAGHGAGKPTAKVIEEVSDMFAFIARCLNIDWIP

The experiment addresses Prolyl endopeptidase (Sus scrofa, UniProt P23687). The experiment in a line: In vitro inhibitory activity against porcine prolyl oligopeptidase by using 4 mM Suc-Gly-Pro-7-amido-4-methylcoumarin as substrate (pH 7.0) at 30 degree C for 60 min.
On to `O=C(NCc1ccccc1)[C@@H]1CCCN1C(=O)c1cccc(C(=O)N2CCC[C@H]2C(=O)N2CCCC2)c1`, for which half-maximal inhibition (IC50) required 31 nM.

As to `O=C(c1ccccc1)[C@@H]1CCCN1C(=O)c1cccc(C(=O)N2CCC[C@H]2C(=O)N2CCCC2)c1`, the IC50 amounted to 18 nM. `CC(=O)[C@@H]1CCCN1C(=O)c1cccc(C(=O)N2CCC[C@H]2C(=O)N2CCC[C@H]2C#N)c1` gave an IC50 of 4.2 nM.

As for `O=C(CO)[C@@H]1CCCN1C(=O)[C@@H]1CCCN1C(=O)c1cccc(C(=O)N2CCC[C@H]2C(=O)C2CCCC2)c1`, the IC50 was determined as 0.61 nM.

Consider `O=C([C@@H]1CCCN1C(=O)c1ccc(C(=O)N2CCC[C@H]2C(=O)N2CCCC2)cc1)N1CCCC1`, for which it took 81 nM to reach half-maximal inhibition (IC50).

In the case of `O=C([C@@H]1CCCN1C(=O)c1cccc(C(=O)N2CCC[C@H]2C(=O)N2CCCC2)c1)N1CCCCCC1`, half-maximal inhibition (IC50) required 23 nM. The same measure for `CC(C)C(=O)[C@@H]1CCCN1C(=O)c1cccc(C(=O)N2CCC[C@H]2C(=O)N2CCC[C@H]2C#N)c1`: 1.6 nM; for `O=C(CCC(=O)N1CCC[C@H]1C(=O)N1CCCC1)N1CCCC1`: 110 nM. `N#C[C@@H]1CCCN1C(=O)[C@@H]1CCCN1C(=O)c1cccc(C(=O)N2CCCCCC2)c1` returned an IC50 of 4.6 nM. The compound `N#C[C@@H]1CCCN1C(=O)[C@@H]1CCCN1C(=O)CCCC(=O)N1CCCCCC1` had an IC50 of 1.2 nM.

Regarding `CC(=O)[C@@H]1CCCN1C(=O)c1cccc(C(=O)N2CCC[C@H]2C(=O)N2CCC[C@H]2C(=O)CO)c1`, the IC50 worked out at 1.2 nM. `N#C[C@@H]1CCCN1C(=O)[C@@H]1CCCN1C(=O)c1ccccc1C(=O)N1CCCC1` came in with an IC50 of 1500 nM. The same measure for `O=C([C@@H]1CCCN1C(=O)CCCCC(=O)N1CCC[C@H]1C(=O)N1CCCC1)N1CCCC1`: 68 nM. Compound `N#C[C@@H]1CCCN1C(=O)[C@@H]1CCCN1C(=O)CCC(=O)N1CCCCCC1` registered an IC50 of 0.76 nM.

Regarding `O=C(CCC(=O)N1CCC[C@H]1C(=O)N1CCCC1)N1CCCCCC1`, the 50% inhibitory concentration (IC50) came out at 41 nM. The same measure for `N#C[C@@H]1CCCN1C(=O)[C@@H]1CCCN1C(=O)c1cccc(C(=O)N2CCCC2)c1`: 6.9 nM; for `N#C[C@@H]1CCCN1C(=O)[C@@H]1CCCN1C(=O)c1cccc(C(=O)N2CCC[C@H]2C(=O)C2CCCC2)c1`: 1.1 nM; for `O=C(C1CCCC1)[C@@H]1CCCN1C(=O)c1cccc(C(=O)N2CCC[C@H]2C(=O)N2CCCC2)c1`: 14 nM. `CC(C)(C)OC(=O)N1CCN(C(=O)[C@@H]2CCCN2C(=O)c2cccc(C(=O)N3CCC[C@H]3C(=O)N3CCCC3)c2)CC1`: the IC50 stood at 170 nM. As for `O=C(N[C@@H](Cc1ccccc1)C(=O)N1CCCC1)c1cccc(C(=O)N[C@@H](Cc2ccccc2)C(=O)N2CCCC2)c1`, the IC50 stood at 81 nM. The same measure for `O=C(CO)[C@@H]1CCCN1C(=O)[C@@H]1CCCN1C(=O)CCCc1ccccc1`: 0.22 nM; for `N#C[C@@H]1CCCN1C(=O)[C@@H]1CCCN1C(=O)CCC(=O)N1CCCC1`: 2.9 nM; for `N#C[C@@H]1CCCN1C(=O)[C@@H]1CCCN1C(=O)c1ccccc1`: 3.1 nM. `N#C[C@@H]1CCCN1C(=O)[C@@H]1CCCN1C(=O)c1cccc(C(=O)N2CCC[C@H]2C(=O)C2CCCCC2)c1` yielded an IC50 of 0.72 nM. In turn, `O=C(CCC(=O)N1CCC[C@H]1C(=O)N1CCCC1)N1CCOCC1` gave an IC50 of 1200 nM. As for `N#C[C@@H]1CCCN1C(=O)[C@@H]1CCCN1C(=O)c1cccc(C(=O)N2CCC[C@H]2C(=O)c2ccccc2)c1`, the IC50 worked out at 1.3 nM. As for `CC(=O)[C@@H]1CCCN1C(=O)c1cccc(C(=O)N2CCC[C@H]2C(=O)N2CCCC2)c1`, 65 nM corresponded to half-maximal inhibition (IC50). `CC(C)(CC(=O)N1CCCCCC1)CC(=O)N1CCC[C@H]1C(=O)N1CCC[C@H]1C#N` displayed an IC50 of 0.39 nM. The compound `O=C([C@@H]1CCCN1C(=O)CCC(=O)N1CCC[C@H]1C(=O)N1CCCC1)N1CCCC1` displayed an IC50 of 77 nM. `N#C[C@@H]1CCCN1C(=O)[C@@H]1CCCN1C(=O)c1ccc(C(=O)N2CCCC2)cc1` had an IC50 of 1.6 nM.

`O=C(c1ccccc1C(=O)N1CCC[C@H]1C(=O)N1CCCC1)N1CCCC1`: the IC50 was determined as 19000 nM. Compound `O=C([C@@H]1CCCN1C(=O)c1cccc(C(=O)N2CCC[C@H]2C(=O)N2CCNCC2)c1)N1CCCC1` gave an IC50 of 33 nM.

As usually defined, the IC50 is the midpoint of a concentration-inhibition curve. Lower therefore signals inhibition by little substance.

These data come from ChEMBL document CHEMBL1140326, “Dicarboxylic acid azacycle l-prolyl-pyrrolidine amides as prolyl oligopeptidase inhibitors and three-dimensional quantitative structure-activity relationship of the enzyme-inhibitor interactions” (J Med Chem, 2005).
